Results on 14 molecules are retold here after ChEMBL document CHEMBL1201862, “PubChem BioAssay data set” (2004).

Active and inactive are the calls of the source.

What is called EC50 is the concentration at which the effect is half-maximal. Usually IC50 stands for the concentration needed to halve the response being measured. The AC50 is the concentration at which the activity in the assay is half-maximal.

The target in data set [1] is T1, Heat shock factor protein 1 (Mus musculus, UniProt P38532).
T1 sequence (P38532 whole entry): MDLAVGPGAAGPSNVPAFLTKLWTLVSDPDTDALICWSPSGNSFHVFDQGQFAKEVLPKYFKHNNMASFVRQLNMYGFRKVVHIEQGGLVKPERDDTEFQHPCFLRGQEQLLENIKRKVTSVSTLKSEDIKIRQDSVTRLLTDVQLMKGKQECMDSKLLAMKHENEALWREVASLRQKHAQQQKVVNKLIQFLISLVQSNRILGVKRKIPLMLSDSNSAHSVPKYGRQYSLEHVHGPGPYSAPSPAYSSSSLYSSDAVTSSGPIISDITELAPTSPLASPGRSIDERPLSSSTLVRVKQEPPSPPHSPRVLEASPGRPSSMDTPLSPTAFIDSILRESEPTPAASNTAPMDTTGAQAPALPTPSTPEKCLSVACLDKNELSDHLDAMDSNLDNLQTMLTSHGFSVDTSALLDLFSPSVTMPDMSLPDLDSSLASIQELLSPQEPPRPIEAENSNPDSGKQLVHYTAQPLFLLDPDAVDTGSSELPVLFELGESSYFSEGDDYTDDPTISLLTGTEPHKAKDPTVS
Put plainly: decrease of HSF1-responsive luciferase luminescence – cell-based, NIH3T3, dose retest, confirmation (AID 2382).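 Also: NIH3T3 fibroblasts with HSF1-driven luciferase reporter stressed by proteasome inhibitor MG132; luminescence from HSF1-driven luciferase expression after 8 hours of MG132 stress.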 It counts as functional.

The nature of data set [2]: HEK-293T cell viability reduction – luminescence, B-cell screen hits, cytotoxicity control for BCR NF-kB inhibitor project, dose response (AID 489021).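 Also: HEK-293T cells carrying an NF-kB luciferase reporter; cells exposed to compound for about 14 hours before viability readout.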 It counts as functional, cell-based.
For data set [3], the target named is T2, Cytochrome P450 3A4 (Homo sapiens, UniProt P08684).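 Also: CYP3A4 tested as one member of a cytochrome P450 panel screen.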
Data set [4] addresses Cytochrome P450 2C19 (Homo sapiens, UniProt P33261). In words: Cytochrome panel assay with activity outcomes. Panel member name: p450-cyp2c19 Compounds with AC50 equal or less than 10 uM are considered active. It is filed as functional. As to conditions: read-out: AC50.
Data set [5] deals with T2, Cytochrome P450 3A4. The source holds these as a separate data set.
The target of data set [6] is T1, Heat shock factor protein 1. Put plainly: enhancement of HSF1-driven luciferase signal – cell-based, NIH3T3, luminescence, dose retest, confirmation (AID 435004).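 Also: stress induced by proteasome inhibitor MG132 added 30 min after compound; luciferase reporter driven by HSF1 response element in NIH3T3 cells; actives raise luminescence as potentiators of the MG132 stress response.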 It is filed as functional.
Data set [7] can be described thus: Luminescence Cell-Based Dose Confirmation HTS to Identify Activators of 5'UTR Stem-Loop Driven Alpha-Synuclein mRNA Translation in H4 Neuroglioblastoma Cells. [Related pubchem assays: 1829 (Project Summary), 1814 (Primary HTS)]. It is filed as functional.
Data set [8] has as its system Streptococcus sp. 'group A'. In words: Streptococcus pyogenes SK(-)GAS viability under kanamycin – luminescence, BacTiterGlo, confirmation, counter-screen for streptokinase expression inhibitor project, dose response (AID 1900). It counts as functional, organism-based. In general terms: A counterscreen serves to expose hits that act by an unwanted route or on another target.

Data set [9] concerns Streptococcus. In words: GAS UMAA2166 growth inhibition – luminescence, BacTiterGlo, counter-screen for streptokinase expression inhibitor project, dose response (AID 1915).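 Also: potency for reduction of bacterial viability or growth.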 It counts as functional, organism-based.
Data set [10] deals with H4. In words: Luminescence Cell-Based Dose Response HTS to Identify Activators of 5'UTR Stem-Loop Driven Prion Protein mRNA Translation in H4 Neuroglioblastoma Cells. [Related pubchem assays: 1829 (Project Summary), 1814 (Primary HTS)]. It is filed as functional. As to conditions: Homo sapiens.
Data set [11] has as its target T3, Streptokinase A (Streptococcus pyogenes serotype M1, UniProt P10520).
T3 sequence (P10520 whole entry): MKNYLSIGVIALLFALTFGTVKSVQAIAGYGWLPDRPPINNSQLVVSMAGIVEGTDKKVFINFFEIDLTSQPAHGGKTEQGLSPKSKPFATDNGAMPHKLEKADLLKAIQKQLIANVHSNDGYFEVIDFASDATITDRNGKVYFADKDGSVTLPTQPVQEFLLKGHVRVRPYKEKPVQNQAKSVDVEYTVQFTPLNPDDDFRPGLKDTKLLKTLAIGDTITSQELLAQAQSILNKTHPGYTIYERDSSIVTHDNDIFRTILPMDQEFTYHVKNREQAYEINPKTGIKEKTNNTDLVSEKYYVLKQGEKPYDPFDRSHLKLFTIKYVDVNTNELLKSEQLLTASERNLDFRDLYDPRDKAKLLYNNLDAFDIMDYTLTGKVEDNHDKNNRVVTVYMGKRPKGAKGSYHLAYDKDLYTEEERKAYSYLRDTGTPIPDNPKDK
Put plainly: viability-normalized secreted streptokinase activity reduction – plasminogen activation absorbance, OD405, dose response (AID 1914).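 Also: secreted streptokinase activity via plasminogen activation per viability signal from cell pellet.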 It is filed as functional, Streptococcus pyogenes M1 GAS.

Data set [12] in a line: Luminescence Cell-Based Dose Response HTS to Identify Activators of Luciferase Translation or Activity in H4 […] Cells. [Related pubchem assays: 1829 (Project Summary), 1814 (Primary HTS)]. It counts as functional.
The target in data set [13] is Cytochrome P450 2C9 (Homo sapiens, UniProt P11712).
Data set [14] is described as follows: Vero E6 cell cytotoxicity, dose response, cytotoxicity control for non-replicating M. tuberculosis project, secondary assay (AID 492998). It is filed as functional, VeroE6. As to conditions: Vero C1008.
Data set [15] can be described thus: microbe, parasite or virus in culture. It is filed as functional. The note with it: Mycobacterium tuberculosis.
Data set [16] can be described thus: THP-1 cell cytotoxicity, dose response, cytotoxicity control for non-replicating M. tuberculosis project (AID 489025). It counts as functional.
The nature of data set [17]: cells. It counts as functional.

T2 sequence (P08684 whole entry): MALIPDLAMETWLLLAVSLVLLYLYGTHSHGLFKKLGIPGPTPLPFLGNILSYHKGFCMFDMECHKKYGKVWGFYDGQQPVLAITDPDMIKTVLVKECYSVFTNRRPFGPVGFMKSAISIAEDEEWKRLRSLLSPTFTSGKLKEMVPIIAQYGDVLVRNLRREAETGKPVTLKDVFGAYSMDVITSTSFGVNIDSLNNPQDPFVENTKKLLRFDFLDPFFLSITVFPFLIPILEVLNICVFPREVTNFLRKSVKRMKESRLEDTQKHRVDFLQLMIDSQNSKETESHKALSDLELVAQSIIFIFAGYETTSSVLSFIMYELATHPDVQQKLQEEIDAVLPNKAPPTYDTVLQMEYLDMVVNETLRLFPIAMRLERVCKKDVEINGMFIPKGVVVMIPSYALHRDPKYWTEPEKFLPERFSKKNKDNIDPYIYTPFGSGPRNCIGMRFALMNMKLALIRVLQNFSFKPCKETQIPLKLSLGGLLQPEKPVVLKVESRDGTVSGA
Sequence of Cytochrome P450 2C19 (P33261 whole entry): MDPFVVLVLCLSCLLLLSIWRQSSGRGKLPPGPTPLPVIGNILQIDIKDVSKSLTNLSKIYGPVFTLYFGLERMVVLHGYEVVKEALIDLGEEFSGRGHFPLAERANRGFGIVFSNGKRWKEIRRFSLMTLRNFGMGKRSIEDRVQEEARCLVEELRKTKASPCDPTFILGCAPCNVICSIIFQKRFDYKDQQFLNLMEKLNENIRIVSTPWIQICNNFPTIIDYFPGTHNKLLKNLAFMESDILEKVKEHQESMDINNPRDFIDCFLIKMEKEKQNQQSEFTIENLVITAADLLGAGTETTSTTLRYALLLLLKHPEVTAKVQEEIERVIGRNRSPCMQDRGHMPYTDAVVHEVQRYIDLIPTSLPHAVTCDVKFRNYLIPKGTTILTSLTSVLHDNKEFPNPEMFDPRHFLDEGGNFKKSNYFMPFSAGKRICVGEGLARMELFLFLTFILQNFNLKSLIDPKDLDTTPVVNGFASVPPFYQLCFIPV
Sequence of Cytochrome P450 2C9 (P11712 whole entry): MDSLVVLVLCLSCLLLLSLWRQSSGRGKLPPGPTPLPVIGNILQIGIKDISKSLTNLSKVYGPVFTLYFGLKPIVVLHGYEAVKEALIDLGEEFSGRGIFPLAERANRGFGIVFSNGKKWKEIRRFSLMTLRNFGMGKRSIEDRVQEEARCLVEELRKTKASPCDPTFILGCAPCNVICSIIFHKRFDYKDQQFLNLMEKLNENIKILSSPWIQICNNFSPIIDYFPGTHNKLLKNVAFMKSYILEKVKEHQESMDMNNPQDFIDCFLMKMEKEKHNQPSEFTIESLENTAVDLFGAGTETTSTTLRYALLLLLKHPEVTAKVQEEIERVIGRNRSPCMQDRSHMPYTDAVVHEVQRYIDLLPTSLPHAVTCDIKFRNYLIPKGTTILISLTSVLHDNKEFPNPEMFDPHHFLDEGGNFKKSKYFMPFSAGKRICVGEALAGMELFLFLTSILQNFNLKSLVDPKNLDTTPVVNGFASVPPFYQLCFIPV

Regarding `O=C(O)CCN1C(=O)/C(=C/c2nc3ccccc3[nH]2)SC1=S`, the EC50 in data set [1] was 7.78 µM (active). For the same molecule, the IC50 in data set [2] is > 80 µM (inactive).

In the case of `COc1ccc(NC(=O)N2CCC3(CC2)CCN(C(=O)c2cccc(F)c2)CC3)cc1`, in data set [3], the AC50 result is reported as “inconclusive”.

For the molecule `Cc1cc(N2CCOCC2)nc2ccc(Cc3ccc4nc(N5CCOCC5)cc(C)c4c3)cc12`, the AC50 result in data set [3] is on record as “inconclusive”.

In the case of `O=C(NCCCN1CCC(Cc2ccccc2)CC1)C1CCN(S(=O)(=O)N2CCOCC2)CC1`, the AC50 result in [3] was “inconclusive”; in data set [4], 25.1 µM (inconclusive).

As to `CCCC(=O)N1CCN(c2ccc(NC(=O)c3ccc(OCC)c([N+](=O)[O-])c3)cc2)CC1`, the AC50 entry is “inconclusive” in data set [3] and 28.2 µM (inconclusive) in [4].

With `CCN(CC(=O)Nc1c(F)cccc1F)C(=O)c1cc(S(=O)(=O)N2CCOCC2)ccc1N1CCCC1`, the IC50 in data set [2] is > 80 µM (inactive).

On to `C[C@H](O/N=C1/[C@H]2O[C@@H]2[C@@H](O)[C@H]2[C@H]1CCn1c(=O)n(-c3ccccc3)c(=O)n12)c1cn([C@H](CO)Cc2ccccc2)nn1`, for which the AC50 in data set [5] and in [3] was 3.98 µM (inconclusive) throughout.

For `CCOc1ccccc1CNCCN1CCOCC1.Cl`, the EC50 in data set [6] was > 260 µM (inactive). For the same molecule, the AC50 result in data set [3] is on record as “inconclusive”.

For `COc1ccc(/C=C/c2ccccc2)cc1[C@H]1[C@H]2C=CC[C@@H](C)[C@@H]2C(=O)N1Cc1ccccc1`, the IC50 in data set [2] is > 80 µM (inactive).

For the molecule `CC1CCN(c2ccc(-c3ccc(NC(=O)c4ccco4)cc3)nn2)CC1`, the EC50 in [7] was 18.6 µM (active); in data set [8], > 150 µM (not active); in [9] it was > 150 µM (not active); in data set [10] it was 120 µM (active); in [11], > 150 µM (not active); in data set [12], > 120 µM (not active).

Regarding `COc1ccc(C2=NCc3nnc(C)n3-c3ccc(Cl)cc32)cc1Cl`, the IC50 in data set [2] is > 80 µM (inactive).

In the case of `Cn1c(=O)c(-c2ccc(Cl)cc2)nc2cnc(N3CCOCC3)nc21`, the AC50 entry in [13] and in data set [3] was “inconclusive” each time.

With `COc1ccc(C(=O)N/N=C/c2sc(N3CCOCC3)nc2-c2ccccc2)cc1OC`, in data set [2], the IC50 was 63.1 µM (inactive).

`Cc1ccc2nc(N/C(N)=N/C(=O)NC3CCCCC3)nc(C)c2c1`: the figures for the CC50 in [14], in [15] and in data set [16] were 18.5 µM (active), 21.1 µM (active) and 23.2 µM (active), respectively. Further, the concentration giving a half-maximal response (EC50) in data set [8] was 5.35 µM (active); in data set [9], > 150 µM (not active). In data set [17], the IC50 is 3.74 µM (active).
